Laboratory results as given in patent US10155798B2, “Anti-obesity compounds derived from neuromedin U” (The Regents of the University of California, priority 2013, dated 2018).
Where a SMILES comes first, the peptide text is derived from it. [ ]: non-standard residue; d: D form. The star is where a group is joined. PEG12 = NCCOCCOCCOCCOCCOCCOCCOCCOCCOCCOCCOCCOCCC(=O)O; Oic = O=C(O)[C@@H]1C[C@@H]2CCCC[C@@H]2N1; Palmitoyl = CCCCCCCCCCCCCCCC(=O)*; Aib = CC(C)(N)C(=O)O; Ahx = NCCCCCC(=O)O

Experiments:
[1] = cited from earlier work
[2] = target: T1, NMUR2 (neuromedin U 2 receptor) (Homo sapiens, UniProt Q9GZQ4); test: Calcium mobilization assay, HEK-NMU2 cells; format: cell-based; conditions: HEK293 cells expressing NMU2 receptor, NA = not active
T1 construct: expressed in transfected cells; host or cells: HEK293 (HEK-NMU2)
T1 sequence (Q9GZQ4 whole entry): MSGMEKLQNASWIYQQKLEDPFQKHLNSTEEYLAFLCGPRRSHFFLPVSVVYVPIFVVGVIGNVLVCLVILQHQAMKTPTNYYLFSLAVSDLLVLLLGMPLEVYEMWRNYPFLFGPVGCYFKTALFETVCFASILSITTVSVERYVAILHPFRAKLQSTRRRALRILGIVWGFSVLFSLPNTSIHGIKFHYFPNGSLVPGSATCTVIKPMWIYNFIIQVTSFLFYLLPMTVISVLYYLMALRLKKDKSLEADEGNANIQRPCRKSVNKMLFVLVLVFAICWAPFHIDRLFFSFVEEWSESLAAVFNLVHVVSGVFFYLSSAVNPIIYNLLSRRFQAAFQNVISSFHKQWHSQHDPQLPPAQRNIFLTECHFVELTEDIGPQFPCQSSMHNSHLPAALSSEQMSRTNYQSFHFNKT
Description: To test whether neuromedin U can be modified/derivatized to yield truncated bioactive compound(s) that may be useful as therapeutics, we synthesized a small library (25 peptides) of hNMU analogs utilizing various stabilization protocols, including: cyclization, lipidation, introduction of α,α-disubstituted and N-methylated amino acids, retro-inverso-approach, and combination of such (see Table 1). Subsequently all analogues were tested against human neuromedin U receptors (NMUR1 and NMUR2) in calcium mobilization assay (collaboration with Dr Gary Willars, University of Leicester, UK).
HEK293 cells expressing either the neuromedin U 1 receptor or neuromedin U 2 receptor (HEK-NMU1 and HEK-NMU2 respectively) were grown to approximately 90% confluence in ELISA strip plates (96-well format) pre-coated with poly-D-lysine (0.1% w/v) and loaded for 45 min at 37° C. with 2 iM fluo-4-AM in Krebs'-HEPES buffer with bovine serum albumin (KHB-BSA; composition: 10 mM HEPES; 4.2 mM NaHCO3; 11.7 mM D-glucose; 1.18 mM MgSO4.7H2O; 1.18 mM KH2PO4; 4.69 mM KCl; 118 mM NaCl; 1.3 mM CaCl2.2H2O; 0.1% (w/v) BSA; pH 7.4). Monolayers were then washed and equilibrated for 5 min at 37° C. in 100 il KHB-BSA for subsequent recording of fluorescence as an index of intracellular [Ca^2+] ([Ca^2+]i) using a microplate reader (NOVOstar; BMG LABTECH, Aylesbury, U.K.). Briefly, 20 μl of KHB-BSA, with or without ligand, was added into the well (200 μl/s) and fluorescence determined at 0.5 s intervals by excitation at 485 nm and collection of emitted light at 520 nm. Changes in fluorescence above basal levels (before ligand addition) were determined. […] Fmax was obtained by removal of buffer and addition of KHB-BSA buffer containing 4 mM [Ca^2+] and ionomycin (2 μM) to representative wells and the fluorescence measured for 10 min. Fmin was then derived by replacing buffer with Ca^2+-free KHB-BSA buffer containing 2 mM EGTA and fluorescence measured for 10 min. For the determination of concentration-response relationships, the maximal change in [Ca^2+]i was calculated following ligand addition. Concentration-response curves were then fitted using a four-parameter logistic equation to determine EC50 values (GraphPad Software Inc., Calif.).

[3] = tested on: diet induced obese (DIO) mouse model; test: Single dose in vivo anorectic experiments in DIO mouse model; conditions: DIO mice; for anorectic activity, single dose: single dose 5344 nMole/kg, FIG. 3A
Source text: FIG. 3. Single dose in vivo experiments performed in DIO mouse model. (A) Comparison of anorectic effects of NM4 and NM7. (B) NM4 dose response experiments. (C) Comparison of NM4 and NM4A anorectic activity.
Initially we focused on single dose experiments comparing NM4 and NM7 at 5344 nMole/kg dose (FIG. 3).

Row | Molecule | EC50 [2] | also measured
1 | Neuromedin U (FRVDEEFQSPFASQSRGYFLFRPRN) [NMU] |  | half-life after subcutaneous (sc) injection ([1]; subcutaneous injection): less than 5 min
2 | CC(=O)N[C@@H](Cc1ccccc1)C(=O)N[C@@H](CC(C)C)C(=O)N[C@@H](Cc1ccccc1)C(=O)N[C@@H](CCCNC(=N)N)C(=O)N1CCC[C@H]1C(=O)N[C@@H](CCCNC(=N)N)C(=O)N[C@@H](CC(N)=O)C(N)=O [Peptide M1, Ac-FL-Phe-Arg-Pro-R-Asn] (Ac-FLFRPRN-NH2) | 0.6 ± 0.19 nM | 
3 | semaglutide |  | plasma half-life ([1]; in vivo): 160 h
4 | CC(C)C[C@H](NC(=O)[C@H](Cc1ccccc1)NC(=O)CCCCCNC(=O)[C@@H](N)CS)C(=O)N[C@@H](Cc1ccccc1)C(=O)N[C@@H](CCCNC(=N)N)C(=O)N1[C@H](C(=O)N[C@@H](CCCNC(=N)N)C(=O)N[C@@H](CC(N)=O)C(=O)NCCCCCC(=O)N[C@@H](CS)C(N)=O)C[C@@H]2CCCC[C@@H]21 [NM9, C-Ahx-FL-Phe-Arg-Oic-R-Asn-Ahx-C] (H-C[Ahx]FLFR[Oic]RN[Ahx]C-NH2) | 708 ± 171 nM | 
5 | CCCCCCCCCCCCCCCC(=O)NCCOCCOCCOCCOCCOCCOCCOCCOCCOCCOCCOCCOCCC(=O)NC(C)(C)C(=O)N[C@@H](Cc1ccccc1)C(=O)N[C@@H](CC(C)C)C(=O)N[C@@H](Cc1ccccc1)C(=O)N[C@@H](CCCNC(=N)N)C(=O)N1CCC[C@H]1C(=O)N[C@@H](CCCNC(=N)N)C(=O)N[C@@H](CC(N)=O)C(=O)NC(C)(C)C(N)=O [Peptide M7, Pal-dPEG12-Aib-FL-Phe-Arg-Pro-R-Asn-Aib] ({Palmitoyl-PEG12}-[Aib]FLFRPRN[Aib]-NH2; N-terminus and C-terminus assumed) |  | anorectic activity, single dose [3]: very limited activity in vivo

The next lines start with results.

Row | EC50 [2] | Molecule | also measured
6 | 0.21 ± 0.07 nM | CC(C)C[C@H](NC(=O)[C@H](Cc1ccccc1)NC(=O)C(C)(C)N)C(=O)N[C@@H](Cc1ccccc1)C(=O)N[C@@H](CCCNC(=N)N)C(=O)N1CCC[C@H]1C(=O)N[C@@H](CCCNC(=N)N)C(=O)N[C@@H](CC(N)=O)C(N)=O [Peptide M2, Aib-FL-Phe-Arg-Pro-R-Asn] (H-[Aib]FLFRPRN-NH2) | 
7 | 0.49 ± 0.13 nM | CC(C)C[C@H](NC(=O)[C@H](Cc1ccccc1)NC(=O)[C@H](Cc1ccc(O)cc1)NC(=O)CNC(=O)[C@H](CCCNC(=N)N)NC(=O)[C@H](CO)NC(=O)[C@H](CCC(N)=O)NC(=O)[C@H](CO)NC(=O)[C@H](C)NC(=O)[C@H](Cc1ccccc1)NC(=O)[C@@H]1CCCN1C(=O)[C@H](CO)NC(=O)[C@H](CCC(N)=O)NC(=O)[C@H](Cc1ccccc1)NC(=O)[C@H](CCC(=O)O)NC(=O)[C@H](CCC(=O)O)NC(=O)[C@H](CC(=O)O)NC(=O)[C@@H](NC(=O)[C@H](CCCNC(=N)N)NC(=O)[C@@H](N)Cc1ccccc1)C(C)C)C(=O)N[C@@H](Cc1ccccc1)C(=O)N[C@@H](CCCNC(=N)N)C(=O)N1CCC[C@H]1C(=O)N[C@@H](CCCNC(=N)N)C(=O)N[C@@H](CC(N)=O)C(N)=O [hNMU, FRVDEEFQSPFASQSRGY-FL-Phe-Arg-Pro-R-Asn, reference compound] (H-FRVDEEFQSPFASQSRGYFLFRPRN-NH2) | 
8 | 50.1 ± 16.2 nM | CC(C)C[C@H](NC(=O)[C@H](Cc1ccccc1)NC(=O)C(C)(C)N)C(=O)N[C@@H](Cc1ccccc1)C(=O)N[C@@H](CCCNC(=N)N)C(=O)N1CCC[C@H]1C(=O)N[C@@H](CCCNC(=N)N)C(=O)N[C@@H](CC(N)=O)C(=O)NC(C)(C)C(N)=O [Peptide M5, Aib-FL-Phe-Arg-Pro-R-Asn-Aib] (H-[Aib]FLFRPRN[Aib]-NH2) | 
9 | 1.7 ± 0.29 nM | CCCCCCCCCCCCCCCC(=O)NCCOCCOCCOCCOCCOCCOCCOCCOCCOCCOCCOCCOCCC(=O)NC(C)(C)C(=O)N[C@@H](Cc1ccccc1)C(=O)N[C@@H](CC(C)C)C(=O)N[C@@H](Cc1ccccc1)C(=O)N[C@@H](CCCNC(=N)N)C(=O)N1CCC[C@H]1C(=O)N[C@@H](CCCNC(=N)N)C(=O)N[C@@H](CC(N)=O)C(N)=O [Peptide M4, Pal-dPEG12-Aib-FL-Phe-Arg-Pro-R-Asn] ({Palmitoyl-PEG12}-[Aib]FLFRPRN-NH2) | anorectic activity, single dose [3]: significant anorectic activity; dose dependence of anorectic effects ([3]; single dose, FIG. 3B): dose-dependent
10 | 170 ± 34.9 nM | CCCCCCCCCCCCCCCC(=O)NC(C)(C)C(=O)N[C@@H](Cc1ccccc1)C(=O)N[C@@H](CC(C)C)C(=O)N[C@@H](Cc1ccccc1)C(=O)N[C@@H](CCCNC(=N)N)C(=O)N1CCC[C@H]1C(=O)N[C@@H](CCCNC(=N)N)C(=O)N[C@@H](CC(N)=O)C(N)=O [Peptide M3, Pal-Aib-FL-Phe-Arg-Pro-R-Asn] (Palmitoyl-[Aib]FLFRPRN-NH2) | 
11 | 240 ± 35.7 nM | CC(C)C[C@H](NC(=O)[C@H](Cc1ccccc1)NC(=O)CCCCCNC(=O)[C@@H](N)CS)C(=O)N[C@@H](Cc1ccccc1)C(=O)N[C@@H](CCCNC(=N)N)C(=O)N1CCC[C@H]1C(=O)N[C@@H](CCCNC(=N)N)C(=O)N[C@@H](CC(N)=O)C(=O)NCCCCCC(=O)N[C@@H](CS)C(N)=O [Peptide M8, C-Ahx-FL-Phe-Arg-Pro-R-Asn-Ahx-C] (H-C[Ahx]FLFRPRN[Ahx]C-NH2) | 
